Legend:
Ventricle = assay: Effects on the effective refractory period, ventricle (anesthetized beagles, vagal nerve stimulation, S1-S2 extrastimulus); format: in vivo; details: 0.3 mg/kg intravenously, from 5 min after administration, basic cycle length 300 msec, bilateral vagal nerve stimulation, ERP after minus before drug
Method: (§1) Effects on the Effective Refractory Period
(§2) Beagles were anesthetized with pentobarbital sodium and thoracotomy was done along the median line under a respirator and the incision was made on the pericardium to expose the heart. ECG was recorded using bipolar electrodes attached to the surface of the right atrial free wall, right atrial auricle, and right ventricular free wall. The vagal nerves were stimulated using an electrostimulation device with Nichrome wires inserted into the vagal nerves in the neck bilaterally. The conditions for electrostimulation to the vagal nerves were set such that the RR intervals on ECG were prolonged by about 100 msec compared with those before the stimulation was started.
(§3) Atrial and ventricular effective refractory periods were determined by S1-S2 extrastimulus technique at basic cycle length of 300 msec during bilateral vagal nerve stimulation, using programmable electric stimulator. A train of 10 basic stimuli (S1) was followed by a premature extrastimulus (S2) at 2 times diastolic threshold.
(§4) For evaluation of drug effects, the atrial and ventricular effective refractory periods were determined before drug administration, then respective compound was administrated intravenously at the dose of 0.3 mg/kg, and the atrial and ventricular effective refactory periods were determined from 5 min after the administration.
(§5) The results were shown as the prolongation time on the atrial and ventricular effective refractory periods, i.e. [effective refractory period after drug administration]−[effective refactory period before drug administration] (msec).

Atrium = assay: Effects on the effective refractory period, atrium (anesthetized beagles, vagal nerve stimulation, S1-S2 extrastimulus); format: in vivo; details: 0.3 mg/kg intravenously, from 5 min after administration, basic cycle length 300 msec, bilateral vagal nerve stimulation, ERP after minus before drug
Method: as §1, §2, §3, §4, §5

SMILES: CC1(C)Oc2ccc(C(N)=O)cc2[C@H](NCCc2ccc(F)cc2)[C@H]1O [compound 4]
- prolongation time on the effective refractory period (msec) Ventricle (Ventricle): -10 ms
- prolongation time on the effective refractory period (msec) Atrium (Atrium): 23 ms

SMILES: CC1(C)Oc2ccc(C(N)=O)cc2[C@H](NCCc2ccccc2)[C@H]1O [compound 3]
- prolongation time on the effective refractory period (msec) Ventricle (Ventricle): 4 ms
- prolongation time on the effective refractory period (msec) Atrium (Atrium): 21 ms

SMILES: CC1(C)Oc2cc([N+](=O)[O-])ccc2[C@H](NCCc2ccccc2)[C@H]1O [compound 6]
- prolongation time on the effective refractory period (msec) Ventricle (Ventricle): 9 ms
- prolongation time on the effective refractory period (msec) Atrium (Atrium): 36 ms

SMILES: Cc1ccc2c(c1)[C@H](NCCc1ccc(Cl)cc1)[C@@H](O)C(C)(C)O2 [compound 2]
- prolongation time on the effective refractory period (msec) Ventricle (Ventricle): 4 ms
- prolongation time on the effective refractory period (msec) Atrium (Atrium): 23 ms

Reference: patent US7041700B2, “Substituted benzopyran derivatives against arrhythmia” (Nissan Chemical Industries, Ltd., priority 2001, dated 2006)
